# Assay results as given in PubChem BioAssay (NCI).
#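 Compound exposure: 48 hours, 5 concentrations, 96-well plates. TGI denotes the concentration required for complete inhibition of growth.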
# Assays:
# Assay in all cases: NCI anticancer screen, dose series, 48 h
# [1] = tested on: 786-0 renal
# [2] = tested on: A498 renal
# [3] = tested on: ACHN renal
# [4] = tested on: BT-549 breast
# [5] = tested on: CAKI-1 renal
# [6] = tested on: CCRF-CEM leukemia
# [7] = tested on: COLO 205 colon
# [8] = tested on: DU-145 prostate
# [9] = tested on: EKVX NSCLC
# [10] = tested on: HCT-116 colon
# [11] = tested on: HCT-15 colon
# [12] = tested on: HL-60(TB) leukemia
# [13] = tested on: HOP-62 NSCLC
# [14] = tested on: HS 578T breast
# [15] = tested on: HT29 colon
# [16] = tested on: IGROV1 ovarian
# [17] = tested on: K-562 leukemia
# [18] = tested on: KM12 colon
# [19] = tested on: LOX IMVI melanoma
# [20] = tested on: M14 melanoma
# [21] = tested on: MALME-3M melanoma
# [22] = tested on: MCF7 breast
# [23] = tested on: MDA-MB-231 breast
# [24] = tested on: MDA-MB-435
# [25] = tested on: MDA-N
# [26] = tested on: MOLT-4 leukemia
# [27] = tested on: NCI-H226 lung
# [28] = tested on: NCI-H23 lung
# [29] = tested on: NCI-H460 lung
# [30] = tested on: NCI/ADR-RES ovarian
# [31] = tested on: OVCAR-3 ovarian
# [32] = tested on: OVCAR-5 ovarian
# [33] = tested on: OVCAR-8 ovarian
# [34] = tested on: PC-3 prostate
# [35] = tested on: RPMI-8226 leukemia
# [36] = tested on: RXF 393 renal
# [37] = tested on: SF-268 CNS
# [38] = tested on: SF-295 CNS
# [39] = tested on: SF-539 CNS
# [40] = tested on: SK-MEL-2 melanoma
# [41] = tested on: SK-MEL-28 melanoma
# [42] = tested on: SK-MEL-5 melanoma
# [43] = tested on: SK-OV-3 ovarian
# [44] = tested on: SN12C renal
# [45] = tested on: SNB-19 CNS
# [46] = tested on: SNB-75 CNS
# [47] = tested on: SR leukemia
# [48] = tested on: SW-620 colon
# [49] = tested on: TK-10 renal
# [50] = tested on: U251 CNS
# [51] = tested on: UACC-257 melanoma
# [52] = tested on: UACC-62 melanoma
# [53] = tested on: UO-31 renal
# [54] = tested on: A549 NSCLC
# [55] = tested on: HCC-2998 colon
# [56] = tested on: HOP-92 NSCLC
# [57] = tested on: NCI-H522 lung
# [58] = tested on: OVCAR-4 ovarian
smiles,measurement,setting,value
S=C(c1c[nH]c2ccccc12)N1CCN(Cc2ccccc2)CC1,TGI,[1],29 µM
same,TGI,[2],37.3 µM
same,TGI,[3],> 100 µM
same,TGI,[4],32.4 µM
same,TGI,[5],56.1 µM
same,TGI,[6],> 100 µM
same,TGI,[7],31 µM
same,TGI,[8],> 100 µM
same,TGI,[9],41.8 µM
same,TGI,[10],29.1 µM
same,TGI,[11],28.1 µM
same,TGI,[12],44 µM
same,TGI,[13],33 µM
same,TGI,[14],34.6 µM
same,TGI,[15],30.1 µM
same,TGI,[16],26.2 µM
same,TGI,[17],> 100 µM
same,TGI,[18],33.8 µM
same,TGI,[19],29.2 µM
same,TGI,[20],26.9 µM
same,TGI,[21],33.7 µM
same,TGI,[22],46.7 µM
same,TGI,[23],32.9 µM
same,TGI,[24],28.8 µM
same,TGI,[25],29.7 µM
same,TGI,[26],47.5 µM
same,TGI,[27],35.9 µM
same,TGI,[28],42.8 µM
same,TGI,[29],67.6 µM
same,TGI,[30],36 µM
same,TGI,[31],29.4 µM
same,TGI,[32],30.5 µM
same,TGI,[33],43.7 µM
same,TGI,[34],30.8 µM
same,TGI,[35],51.9 µM
same,TGI,[36],30.9 µM
same,TGI,[37],35.6 µM
same,TGI,[38],29 µM
same,TGI,[39],32.9 µM
same,TGI,[40],34.1 µM
same,TGI,[41],31 µM
same,TGI,[42],24.5 µM
same,TGI,[43],51.4 µM
same,TGI,[44],30.1 µM
same,TGI,[45],35.5 µM
same,TGI,[46],37 µM
same,TGI,[47],47.9 µM
same,TGI,[48],31.6 µM
same,TGI,[49],> 100000 nM
same,TGI,[50],33.6 µM
same,TGI,[51],50.9 µM
same,TGI,[52],33.7 µM
same,TGI,[53],21.5 µM
C/C=C/C1OC(O)(C(C)C(O)[C@H](C)C2OC(=O)/C(OC)=C/C(C)=C/[C@@H](C)[C@@H](O)[C@@H](C)C(O)C(C)C/C(C)=C/C=C/C2OC)C[C@@H](OC2CC(O)C(OC(N)=O)C(C)O2)C1C (stereo not given in full),TGI,[1],1.42 µM
same,TGI,[2],3.68 µM
same,TGI,[54],13.3 µM
same,TGI,[3],12.1 µM
same,TGI,[4],12 µM
same,TGI,[5],13.9 µM
same,TGI,[7],1.27 µM
same,TGI,[8],16.2 µM
same,TGI,[9],8.37 µM
same,TGI,[55],< 10 nM
same,TGI,[10],1.42 µM
same,TGI,[11],13.3 µM
same,TGI,[13],< 0.01 µM
same,TGI,[56],< 10 nM
same,TGI,[14],27.1 µM
same,TGI,[15],1.54 µM
same,TGI,[16],12.9 µM
same,TGI,[18],1.33 µM
same,TGI,[19],< 0.01 µM
same,TGI,[20],< 0.01 µM
same,TGI,[21],0.801 µM
same,TGI,[22],7.65 µM
same,TGI,[24],2.58 µM
same,TGI,[25],1.11 µM
same,TGI,[26],< 0.01 µM
same,TGI,[27],6.97 µM
same,TGI,[28],15.3 µM
same,TGI,[29],1.36 µM
same,TGI,[57],< 10 nM
same,TGI,[30],> 68.6 µM
same,TGI,[31],3.24 µM
same,TGI,[58],18.9 µM
same,TGI,[32],3.14 µM
same,TGI,[33],15.7 µM
same,TGI,[34],0.625 µM
same,TGI,[36],1.91 µM
same,TGI,[37],10.3 µM
same,TGI,[38],< 0.01 µM
same,TGI,[39],< 0.01 µM
same,TGI,[40],< 0.01 µM
same,TGI,[41],3.18 µM
same,TGI,[42],< 0.01 µM
same,TGI,[43],> 43.4 µM
same,TGI,[44],15 µM
same,TGI,[45],10.5 µM
same,TGI,[46],2.12 µM
same,TGI,[48],1.01 µM
same,TGI,[49],1780 nM
same,TGI,[50],8.91 µM
same,TGI,[51],< 0.01 µM
same,TGI,[52],< 0.01 µM
same,TGI,[53],13.8 µM
